Data as given in patent US9365604B2, “Oligomer-nucleoside phosphate conjugates” (NEKTAR THERAPEUTICS, priority 2007, dated 2016).

Legend:
[1] = tested on: MCF7; experiment: Sulforhodamine B (SRB) growth inhibition assay; assay type: cell-based, Human; conditions: for ratio vs flox (GI50) MCF7: GI50 of conjugate vs floxuridine; for GI50: SRB assay, cells exposed for 24 h, read-out: GI50 values (μM) MCF7
Protocol: (§1) In Vitro Screening of PEG-Gemcitabine Monophosphate in Selected Human Cancer Cell Lines
(§2) The aim was to determine the GI50 values for PEG-floxuridine conjugates against a panel of cell lines, and based on previous data from Xenograft studies. […] The test articles were solubilized in dimethylsulfoxide and were tested at four different molar (M) concentrations; 10^−4, 10^−5, 10^−6, M. GI50 (the concentration needed to reduce the growth of treated cells to half that of untreated control cells) was calculated for each condition ([(Ti−Tz)/(C-Tz)]×100=50, where Ti, Tz, and C refer to absorbance values obtained from each tested concentration, time zero, and control treatment, respectively).
as §2, with “The objective” for “The aim”, “the IC50” for “the GI50”, “for PEG-gemcitabine” for “for PEG-floxuridine”, “in dimethyl sulfoxide” for “in dimethylsulfoxide”, “10^−6, 10^−7” for “10^−6,”, “condition ([(Ti−Tz)/(C−Tz)]×100=50,” for “condition ([(Ti−Tz)/(C-Tz)]×100=50,”

[2] = tested on: HT29; experiment: Sulforhodamine B (SRB) growth inhibition assay; assay type: cell-based, Human; conditions: for ratio vs flox (GI50) HT29: GI50 of conjugate vs floxuridine; for GI50: SRB assay, cells exposed for 24 h, read-out: GI50 values (μM) HT29
Protocol: as §1, §2
as §2, with “The objective” for “The aim”, “the IC50” for “the GI50”, “for PEG-gemcitabine” for “for PEG-floxuridine”, “in dimethyl sulfoxide” for “in dimethylsulfoxide”, “10^−6, 10^−7” for “10^−6,”, “condition ([(Ti−Tz)/(C−Tz)]×100=50,” for “condition ([(Ti−Tz)/(C-Tz)]×100=50,”

[3] = tested on: Hop62; experiment: Sulforhodamine B (SRB) growth inhibition assay; assay type: cell-based, Human; conditions: for ratio vs flox (GI50) Hop62: GI50 of conjugate vs floxuridine; for GI50: SRB assay, cells exposed for 24 h, read-out: GI50 values (μM) Hop62
Protocol: as §1, §2
as §2, with “The objective” for “The aim”, “the IC50” for “the GI50”, “for PEG-gemcitabine” for “for PEG-floxuridine”, “in dimethyl sulfoxide” for “in dimethylsulfoxide”, “10^−6, 10^−7” for “10^−6,”, “condition ([(Ti−Tz)/(C−Tz)]×100=50,” for “condition ([(Ti−Tz)/(C-Tz)]×100=50,”

[4] = tested on: A2780; experiment: Sulforhodamine B (SRB) growth inhibition assay; assay type: cell-based, Human; conditions: for ratio vs flox (GI50) A2780: GI50 of conjugate vs floxuridine; for GI50: SRB assay, cells exposed for 24 h, read-out: GI50 values (μM) A2780
Protocol: as §1, §2
as §2, with “The objective” for “The aim”, “the IC50” for “the GI50”, “for PEG-gemcitabine” for “for PEG-floxuridine”, “in dimethyl sulfoxide” for “in dimethylsulfoxide”, “10^−6, 10^−7” for “10^−6,”, “condition ([(Ti−Tz)/(C−Tz)]×100=50,” for “condition ([(Ti−Tz)/(C-Tz)]×100=50,”

[5] = tested on: DU145; experiment: Sulforhodamine B (SRB) growth inhibition assay; assay type: cell-based, Human; conditions: for ratio vs flox (GI50) DU145: GI50 of conjugate vs floxuridine; for GI50: SRB assay, cells exposed for 24 h, read-out: GI50 values (μM) DU145
Protocol: as §2
as §2, with “The objective” for “The aim”, “the IC50” for “the GI50”, “for PEG-gemcitabine” for “for PEG-floxuridine”, “in dimethyl sulfoxide” for “in dimethylsulfoxide”, “10^−6, 10^−7” for “10^−6,”, “condition ([(Ti−Tz)/(C−Tz)]×100=50,” for “condition ([(Ti−Tz)/(C-Tz)]×100=50,”

[6] = tested on: PANC-1; conditions: Zajchowski et al. 2005; cited from earlier work

SMILES | ratio vs flox (GI50) MCF7 [1] | GI50 [1] | ratio vs flox (GI50) HT29 [2] | GI50 [2] | ratio vs flox (GI50) Hop62 [3] | GI50 [3] | ratio vs flox (GI50) A2780 [4] | GI50 [4] | ratio vs flox (GI50) DU145 [5] | GI50 [5] | resistance of PANC-1 in vitro (shown previously) [6]
COCCOCCOCCOCCOCCOCCOCCOP(=O)(OCCOCCOCCOCCOCCOCCOCCOC)OC[C@H]1O[C@@H](n2cc(F)c(=O)[nH]c2=O)C[C@@H]1O [Floxuridine Di (mPEG7), 5′-floxuridine di-methoxy hepta(ethylene glycol) phosphate] | 667 | > 100 µM | 4 | > 100 µM | 417 | > 100 µM | 1538 | > 100 µM | 4 | > 100 µM | –
Nc1ccn([C@@H]2S[C@H](CO)[C@@H](O)[C@@H]2F)c(=O)n1 [4′-thio-FAC] | – | – | – | – | – | – | – | – | – | – | resistant
COCCOCCOCCOP(=O)(OCCOCCOCCOC)OC[C@H]1O[C@@H](n2cc(F)c(=O)[nH]c2=O)C[C@@H]1O [Floxuridine Di (mPEG3), 5′-floxuridine di-methoxy tri(ethylene glycol) phosphate] | 667 | > 100 µM | 4 | > 100 µM | 417 | > 100 µM | 1538 | > 100 µM | 4 | > 100 µM | –
